# Measurements as given in patent US20260356803A1, “Nicotinamide derivatives” (Board of Regents, The University of Texas System, priority 2024, published 2026).
# Read-outs that look alike come from different tables or passages of the source.
# Columns and labels:
# [1] = Mouse pharmacokinetics in plasma and brain; assay type: in vivo, CD1 mice; conditions: for Kp / Cmax: mouse; for Kp: read-out: brain to blood exposure (AUCBrain/AUCplasma)
# Protocol: GBM, which is reported to be a potential target for these compounds, is an intracranial tumor, and thus, effective drugs must cross the blood-brain barrier. Therefore, in addition to plasma, we analyzed compound and metabolite levels in mouse brain. Following the administration of a single 5 mg/kg intravenous (IV) injection of either 1 or 9, we quantified the levels of each compound in both plasma and brain. […] The brain to blood exposure, represented by the ratio of the area under the curve between brain and plasma (AUCBrain/AUCplasma), was 3.45 for 1 and 2.85 for 9.
# Next, we analyzed the levels of metabolites that result from the metabolism of 1 and 9 through the NAD salvage pathway.
# MS conditions were identical. The HPLC conditions were as follows: Solvent A: water including 0.1% formic acid (LC-MS) grade. Solvent B: Acetonitrile including %0.1 formic acid (LC-MS) grade. Gradient condition was 0-3 min: 3% B, 17 min: 60.5% B, 17.1 min Flow to 0.25 mL/min, 17 to 20 min hold 95% B: 20.5-25 min hold 3% B, 24.5 flow to 0.2 mL/min. Total run time: 25 mins.
# Data analysis for TOF data was performed using SCIEX MultiQuant software version 3.0.3. For each of the compounds monitored, the theoretical exact m/z was calculated. A range of ±10 ppm was extracted around the theoretical mass and used to create an analytical method in MultiQuant. Extracted areas for parent compounds 1 and 9 in S462 cells and mice were normalized to the internal standard tolbutamide, while parent compounds 1 and 9 in cell-free reactions and all metabolite levels were presented as peak areas without normalization.
# Six week old female CD1 mice (Charles River, Wilmington, MA) were dosed with 5 mg/kg 1 or 9 formulated as 5% DMSO/10% PEG400/85% D5W (5% dextrose in water, pH 7.4) in a volume of 0.2 ml/mouse. Animals were euthanized by inhalation overdose of CO2 at various points postdose. Blood was collected by cardiac puncture into K2EDTA tubes and kept on ice until they were spun at 9600×g for 10 min at 4 °C for plasma. Brains were harvested, rinsed briefly with PBS to remove surface adhering blood, weighed and then snap frozen in liquid nitrogen before storing along with plasma at −80 °C until processing. Brains were homogenized in a volume of PBS equal to 3× their weight in g. One hundred microliters of plasma or brain homogenate was mixed with […] of methanol containing 0.15% formic acid and 37.5 ng/ml tolbutamide internal standard. Samples were vortexed for 15 seconds, incubated at RT for 10 min and then spun at 16,100×g. The resulting supernatant was spun a second time and then filtered through 0.2 μm PVDF filters and analyzed by LC-MS. Samples were quantitated in comparison to a standard curve prepared by spiking 1 or 9 into blank plasma or brain homogenate. The limit of quantitation was set as the lowest point on the standard curve that upon back-calculation was within 20% of the nominal value and was at least three-fold above the average peak area observed for blank plasma or brain. The LOQ for 1 was 1 ng/ml in plasma and 5 ng/ml in brain. The LOQ for 9 was 5 ng/ml in plasma and 10 ng/ml for brain homogenate. Brain concentrations were adjusted to ng/g wet tissue weight and then an estimate was made of drug in brain vasculature using the measured plasma concentration and subtracted from the measured brain concentration.^30 Pharmacokinetic parameters were calculated using the noncompartmental analysis tool with sparse sampling in Phoenix WinNonlin (Certara Corp, Princeton, NJ).
# [2] = test system: human MPNST cell line S462; experiment: S462 cell viability (CellTiter-Glo, 72 h); assay type: cell-based; conditions: for IC50: read-out: IC50
# Description: This similarity, in addition to the scaffold's particular sensitivity to modifications around the pyridinyl ring led us to hypothesize that the activity of compounds 1 and 9 may depend on the concentration of Nam in the media. To test this hypothesis, we analyzed the activity of both compounds in media supplemented with increasing concentrations of Nam. […] Given that Nam inhibited compound activity, we considered Nam concentrations in basal culture conditions (DMEM supplemented with 10% fetal bovine serum or FBS) as compared to physiological levels. Nam levels in human serum are estimated to be in the 4 μM range.^5 In contrast, DMEM alone contains […] of Nam and the concentration in 10% FBS is expected to range between 0.574-1.56 μM.^6 To more closely reflect physiologic levels of Nam, we evaluated the activity of these compounds in cells grown in DMEM lacking Nam (Nam-free DMEM), so that the only exogenous Nam derives from 10% FBS. […] These observations indicate that the potency of these compounds is in the nanomolar range when tested in the presence of physiological levels of Nam.
# We thus re-assessed the structure activity relationship of compound 21 analogs in Nam-free DMEM supplemented with or without 100 μM Nam (see appendix below: Synthesis, characterization and activity of micromolar and nanomolar active nicotinamide derivatives). […] Particularly notable, even in Nam-depleted conditions, all active analogs retained the same 3-pyridinyl ring as Nam, reinforcing the relationship between structural resemblance to Nam and compound efficacy.
# In 96-well assay plates (Corning #2903), 2,000 cells were plated per well in 100 μL of medium and allowed to adhere overnight. The next day, compounds or Nam suspended in DMSO were dispensed to the assayed wells using a D300e Digital Dispenser (Tecan). All wells were normalized to 0.5% DMSO. 72 hours after incubation at 37 °C in 5% CO2, cell viability was assayed using an ATP-based luminescent viability assay, CellTiter-Glo (Promega #G8462). CellTiter-Glo substrate was mixed 1:1 with phosphate-buffered saline (PBS) supplemented with 1% Triton X-100, and 40 μL of this mixture was added to the assay wells. After the plates were shaken on a microplate shaker for 10 minutes at room temperature, luminescence was recorded using a Synergy 2 Microplate Reader or Cytation 5 plate reader (BioTek). In Prism 9 software (GraphPad), ten-point dose response curves were plotted with baseline-correction to the vehicle control well, and IC50 values were calculated by curve fitting using asymmetric (five parameter), least squares fit.
# [3] = brain, 5 mg/kg IV single dose, read-out: brain Cmax
# [4] = brain, 5 mg/kg IV, assuming brain density of 1 g/ml, read-out: brain Cmax
# [5] = plasma, 5 mg/kg IV single dose, molar, read-out: plasma maximum concentration (Cmax)
# [6] = plasma, 5 mg/kg IV single dose, read-out: plasma maximum concentration (Cmax)
# [7] = Nam titration experiment, media without added Nam
# [8] = S462, commercial DMEM, highest dose tested 50 μM
# [9] = addition of 100 μM exogenous Nam
brain penetration ([1]; 5 mg/kg IV),"Kp ([1]; brain, 5 mg/kg IV)","Cmax [1, 3] [ng/g]","Cmax [1, 4] [µM]","Cmax [1, 5] [µM]","Cmax [1, 6] [ng/mL]","rapidly cleared from plasma by ([1]; plasma, 5 mg/kg IV) [min]",Compound,persistence in brain versus plasma ([1]; 5 mg/kg IV),"IC50 [2, 7] [µM]","IC50 [2, 8] [µM]","IC50 [2, 9] [µM]",IC50 ([2]; addition of 1 mM exogenous Nam) [µM],further results
brain-penetrant,3.45,2220,10.8,5.65,1160,≤ 90,"O=C(Nc1cccnc1)c1cccs1 [Compound 1, N-(pyridin-3-yl)thiophene-2-carboxamide]",persisted longer in the brain than in the plasma,1.96,1.41,6.85,32.3,–
brain-penetrant,2.85,1600,7.8,23.7,4830,≤ 90,"O=C(Nc1cccs1)c1cccnc1 [Compound 9, N-(Thiophen-2-yl)nicotinamide]",persisted longer in the brain than in the plasma,0.845,1.2,4.23,35.7,"toxicity to S462 ([2]; 10% FBS Nam-free DMEM): toxic to S462; rescue by nicotinamide ([2]; 10% FBS Nam-free DMEM, comparison of vacor, 3-AP, tiazofurin and 9): rescued by nicotinamide; IC50 of 9 less than 3-AP ([2]; 10% FBS Nam-free DMEM, versus 3-AP): 1823 fold; IC50 of 9 less than tiazofurin ([2]; 10% FBS Nam-free DMEM, versus tiazofurin): 477 fold; IC50 of 9 less than vacor ([2]; 10% FBS Nam-free DMEM, versus vacor): 206 fold; potency increase in Nam-free DMEM ([2]; Nam-free DMEM versus basal medium): 92 fold; IC50 ([2]; Nam-free DMEM with 10% FBS): 0.00917 µM; IC50 ([2]; Nam-free DMEM, addition of 1.4 μM Nam): 0.0514 µM; IC50 ([2]; Nam-free DMEM, addition of 37 μM Nam): 1.84 µM; average increase in IC50 on NMNAT1 knockout ([2]; S462, three independent NMNAT1 sgRNAs): 28.5 fold"
